Experimental data taken from patent US8946164B2, “Bioactive peptide” (Kyoto University, priority 2010, dated 2015).

Legend:
mice [1] = experiment: Elevated plus-maze test of anxiolytic effect; assay type: in vivo, mouse; details: for Minimum Effective Dose (anxiolytic effect): IP
Procedure: In the present invention, the anxiolytic effects can be evaluated by the elevated plus-maze test, which has been developed as a method for evaluating anxiety-related behaviors to screen anxiolytic drugs and has been widely used (FIG. 1). Specifically, the test is performed as follows: a candidate substance for an anxiolytic drug is orally or intraperitoneally administered to a mouse, the mouse is placed in an elevated plus-maze 30 minutes after the administration, and the potency of the anxiolytic effect is evaluated based on the number of entries into the open arms and the change in the time spent on the open arms.
The elevated plus-maze includes two open arms (25×5 cm) and two closed arms (25×5×15 cm), which were joined to a central platform 50 cm high above the floor (see FIG. 1). Because the closed arms were surrounded by barriers, a mouse could safely walk in the closed arms in spite of the elevated position. On the other hand, because the open arms were not surrounded by barriers, a mouse walking along the open arms would feel anxious that it might fall from the elevated position. Therefore, the more time the mouse spent in the open arms, or the greater the number of entries into the open arms, the less anxious the mouse would feel. Thus, the anxiolytic activity is determined based on these indices.
A mouse was placed on a portion of the central platform facing one of the open arms, and the test was started. During the 5-minute test time, the cumulative time spent in the open arms (abbr.: time in open arms), the number of visits to the open arms (abbr.: visits to open arms), and the total number of visits to the either arms (abbr.: total visits) were recorded. The percentage of the time spent in the open arms and the percentage of the number of visits to the open arms were calculated as indices of anxiety.
The data obtained from the elevated plus-maze test were represented as the mean values±SEM. The data were analyzed by one-way ANOVA, followed by the Fisher test for multiple comparisons.
Each of VYLPR (SEQ ID NO:1) (Example 1), YLPR (SEQ ID NO:2) (Example 2), and LPR (SEQ ID NO:3) (Example 3) dissolved in physiological saline was administered intraperitoneally (IP) or orally (PO) to mice (n=3 to 14) in the amount shown in each figure before the mice were placed on the central portion of the elevated plus-maze. The percentage of the time spent in the open arms, the percentage of the number of visits to the open arms, and the total number of visits to the both arms (total visits) were compared between groups administered each peptide and the control group (0 mg/kg). The results are shown in FIGS. 2 to 5, FIGS. 7 and 8, and Table 1.
Trypsin-digested ovalbumin was used as an active ingredient and was administered intraperitoneally and orally to test the anxiolytic effects using the open arms in the same manner as in Examples 1 to 3.
An aqueous solution of ovalbumin (20 mg/ml) was heated (10-min boiling), and bovine trypsin (E:S=1:100) was added to carry out a reaction at 37° C. for 5 hours. As a result, VYLPR (SEQ ID NO:1) was produced at a high efficiency of 44 mol %. When the aqueous solution of ovalbumin was not pre-heated, VYLPR (SEQ ID NO:1) was below the detection limit and was hardly produced even with the trypsin treatment. TPCK-treated Trypsin from bovine pancreas (Sigma) was used as the bovine trypsin. […]

mice [2] = experiment: Elevated plus-maze test with peptide given in combination with an inhibitor or receptor antagonist; assay type: in vivo, mouse
Procedure: An anxiolytic peptide of the invention was administered in combination with the inhibitor or one of the antagonists for various receptors as follows, and tests were conducted in the same manner as in Example 1 in order to identify the effect of each antagonist on the anxiolytic activity of the peptide of the present invention, i.e., to identify the receptors on which the peptide of the invention acts.
COX inhibitor: Indomethacin, 10 mg/kg
DP1-R antagonist: BWA868C, 60 μg/kg

Substance	Minimum Effective Dose (anxiolytic effect) (mice [1]) [mg/kg]	anxiolytic effect (mice [1]; intraperitoneal administration)	anxiolytic effect (mice [1]; oral administration)	anxiolytic effect in the presence of prostaglandin DP1 receptor antagonist (mice [2]; BWA868C 60 μg/kg, FIG. 10A)	anxiolytic effect in the presence of adenosine A2A receptor antagonist (mice [2]; SCH58261 0.1 mg/kg, FIG. 10B)
Leu-Pro-Arg [LPR]	0.3				
Tyr-Leu-Pro-Arg (YLPR; Designed peptide)	0.3				
Undigested ovalbumin: Undigested ovalbumin (with and without heat treatment) used as the control for the trypsin digest [reference compound]		did not show anxiolytic effects	did not show anxiolytic effects		
Val-Tyr-Leu-Pro-Arg (VYLPR; Designed peptide)	0.3			inhibited	inhibited
